Data as given in ChEMBL document CHEMBL1159163, “Amselamine, a new selective histamine H2-receptor agonist” (Bioorg Med Chem Lett, 1994).

What was measured:
[1] = pKa1 (aliphatic amine); format: physicochemical; settings: read-out: pKa1
[2] = pKa2 (heterocyclic ring); format: physicochemical; settings: read-out: pKa2
[3] = target: Histamine H3 receptor (Cavia porcellus) (UniProt Q9JI35); assay: Tested for affinity towards Histamine H3 receptor in electrically stimulated guinea pig jejunum; format: tissue-based
Histamine H3 receptor (Cavia porcellus), sequence (Q9JI35 whole entry): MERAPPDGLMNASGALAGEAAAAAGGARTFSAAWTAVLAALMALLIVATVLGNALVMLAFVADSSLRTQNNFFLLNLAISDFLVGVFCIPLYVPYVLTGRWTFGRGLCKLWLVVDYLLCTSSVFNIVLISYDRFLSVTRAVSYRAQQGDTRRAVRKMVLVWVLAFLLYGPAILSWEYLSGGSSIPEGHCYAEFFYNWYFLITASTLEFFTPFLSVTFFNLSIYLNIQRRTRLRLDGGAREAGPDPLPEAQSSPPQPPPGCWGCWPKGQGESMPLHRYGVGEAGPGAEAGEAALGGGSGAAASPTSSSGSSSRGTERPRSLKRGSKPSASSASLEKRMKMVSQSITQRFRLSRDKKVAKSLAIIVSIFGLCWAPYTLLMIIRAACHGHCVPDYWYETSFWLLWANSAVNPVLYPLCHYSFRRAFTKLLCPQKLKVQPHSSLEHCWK

[4] = target: Histamine H2 receptor (Cavia porcellus) (UniProt P47747); assay: Histamine H2 receptor activity was determined on the isolated spontaneously beating guinea pig right atrium; format: tissue-based; settings: Cardiac atrium
Histamine H2 receptor (Cavia porcellus), sequence (P47747 whole entry): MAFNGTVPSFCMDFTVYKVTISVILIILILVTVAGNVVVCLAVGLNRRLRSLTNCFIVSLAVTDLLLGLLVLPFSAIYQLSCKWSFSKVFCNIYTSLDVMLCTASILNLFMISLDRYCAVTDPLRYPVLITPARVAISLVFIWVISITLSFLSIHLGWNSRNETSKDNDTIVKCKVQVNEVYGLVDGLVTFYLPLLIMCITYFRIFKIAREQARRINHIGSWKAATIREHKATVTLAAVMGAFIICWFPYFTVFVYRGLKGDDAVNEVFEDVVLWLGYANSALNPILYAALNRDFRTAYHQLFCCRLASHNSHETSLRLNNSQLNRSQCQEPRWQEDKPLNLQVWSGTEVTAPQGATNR

Histamine H2 receptor = Histamine H2 receptor (Rattus norvegicus, UniProt P25102); assay: Affinity to the Histamine H2 receptor was determined expressed in CHO cell using [125I]iodoaminopotentidine as radioligand; format: cell-based
Histamine H2 receptor, sequence (P25102 whole entry): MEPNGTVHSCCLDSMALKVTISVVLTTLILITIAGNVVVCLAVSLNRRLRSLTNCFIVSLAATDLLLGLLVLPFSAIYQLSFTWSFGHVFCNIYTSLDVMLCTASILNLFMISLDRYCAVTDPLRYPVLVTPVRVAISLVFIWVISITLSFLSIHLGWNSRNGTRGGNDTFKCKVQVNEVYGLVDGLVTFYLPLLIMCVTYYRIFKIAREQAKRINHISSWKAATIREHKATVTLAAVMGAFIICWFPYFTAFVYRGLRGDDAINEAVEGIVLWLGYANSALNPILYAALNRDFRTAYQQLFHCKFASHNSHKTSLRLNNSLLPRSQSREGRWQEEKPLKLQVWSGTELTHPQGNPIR

Histamine H1 receptor = Histamine H1 receptor (Cavia porcellus, UniProt P31389); assay: Tested for affinity towards H1 receptor in guinea pig ileum; format: tissue-based; settings: read-out: pA2 (converted)
Histamine H1 receptor, sequence (P31389 whole entry): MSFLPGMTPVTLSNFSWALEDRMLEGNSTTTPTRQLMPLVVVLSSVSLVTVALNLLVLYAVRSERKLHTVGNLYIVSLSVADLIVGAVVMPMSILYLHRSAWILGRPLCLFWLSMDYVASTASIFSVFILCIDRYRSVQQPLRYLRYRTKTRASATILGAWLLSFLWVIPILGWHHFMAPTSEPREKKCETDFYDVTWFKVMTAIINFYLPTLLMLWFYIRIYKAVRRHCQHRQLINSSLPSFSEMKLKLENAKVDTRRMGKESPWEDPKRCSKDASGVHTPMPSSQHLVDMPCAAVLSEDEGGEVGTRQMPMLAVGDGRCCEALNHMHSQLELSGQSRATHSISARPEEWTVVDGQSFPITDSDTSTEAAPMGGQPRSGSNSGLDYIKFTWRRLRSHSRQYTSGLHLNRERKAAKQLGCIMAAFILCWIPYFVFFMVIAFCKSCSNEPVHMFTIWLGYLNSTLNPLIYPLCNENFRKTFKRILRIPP

Row | SMILES | pKa [1] | pKa [2] | pD2 [3] | pD2 [4] | Kd (Histamine H2 receptor) | Kb (Histamine H1 receptor)
1 | Cc1nc(N)[se]c1CCN | 9.21 | 5.78 | 4.44 | 6.41 | 9.77 µM | 141 µM
2 | Cc1nc(N)sc1CCN [AMTHAMINE] | 9.15 | 5.4 | – | – | 11.5 µM | –
3 | NCCc1c[nH]cn1 [HISTAMINE] | 9.32 | 5.93 | – | – | 117 µM | –
